{
  "source": "patent US20120093809A1",
  "about": "“USE OF ALKANOYL L-CARNITINE IN COMBINATION WITH CHEMOTHERAPEUTIC AGENTS FOR THE TREATMENT OF NEOPLASMS” (priority 2008, published 2012)",
  "key": {"[1]": {"test_system": "PC3 prostate carcinoma cells (p53 null)", "assay": "Antiproliferative activity of cisplatin with and without acetyl L-carnitine, MTT assay", "format": "cell-based", "conditions": "acetyl L-carnitine 10 mM where combined, 72 h of exposure, 0.1% FBS", "protocol": "(§1) Moreover, the activity was also evaluated on two prostate tumor cell lines with p53 wild-type (LnCaP) or p53 null (PC3). […] The number of surviving cells was finally determined by the tetrazolium salt (MTT) assay, as described by Hansen M B et al. (Re-examination and further development of a precise and rapid dye method for measuring cell growth/cell kill. J. Immunol. Methods 119: 203-10, 1989). […] In this case the statistical comparison was performed by Mann-Whitney test.\n(§2) To test the effects of the compounds on cell growth, tumor cells were seeded in 96-well tissue culture plates at approximately 10% confluence and were allowed to attach and recover for at least 24 h. Tumor cells were exposed to compounds for 72 h or 6 days in 0.1% FBS at 37° C., then medium culture was removed and 100 μL/well of medium were added containing 25 μL/well of a solution 5 mg/mL MTT (final 1 mg/mL). Plates were kept at. 37° C. in incubator with 5% CO2 for 2 h for the formation of blu chrystals. The supernatant was removed and 100 μL/well of lysant medium were added. Plates were kept under stirring for 60 min. The survival cell was determined as optical density by a Multiskan spectrofluorimeter at 570 nm."}, "[2]": {"test_system": "NCI-H1650 non-small cell lung carcinoma cells", "assay": "Antiproliferative activity of cisplatin with and without acetyl L-carnitine, MTT assay", "format": "cell-based", "conditions": "acetyl L-carnitine 10 mM where combined, 6 days of exposure, 0.1% FBS", "protocol": "as §1, §2"}, "[3]": {"test_system": "SJSA-1 (with amplification of mdm2) osteosarcoma cells", "assay": "Antiproliferative activity of cisplatin with and without acetyl L-carnitine, MTT assay", "format": "cell-based", "conditions": "acetyl L-carnitine 10 mM where combined, 72 h of exposure followed by 72 h of recovery, 0.1% FBS", "protocol": "as §1, §2"}, "[4]": {"test_system": "LnCaP prostate carcinoma cells (p53 wild-type)", "assay": "Antiproliferative activity of cisplatin with and without acetyl L-carnitine, MTT assay", "format": "cell-based", "conditions": "acetyl L-carnitine 10 mM where combined, 6 days of exposure, 0.1% FBS", "protocol": "as §1, §2"}, "NCI-H460 NSCLC": {"test_system": "NCI-H460 NSCLC", "assay": "Antitumor activity of cisplatin in combination with acetyl L-carnitine, s.c. xenograft", "format": "in vivo", "conditions": "cisplatin ip q3-4dx5, alone or with acetyl L-carnitine 200 mg/kg p.o. qdx5/wx4w", "protocol": "(§3) Treatments started three days after tumor injection.\nMice were subdivided (12 mice/group) in the following experimental groups:\nAcetyl L-carnitine was administered immediately before the drug given in combination.\n(§4) To evaluate the antitumor activity, tumor diameters were measured with a Vernier caliper.\n(§5) When tumors reached a volume of 1-2 cm^3, mice were sacrificed by cervical dislocation. Body weight recording was carried out through the study and mortality was noted."}, "[5]": {"test_system": "A2780/Dx multidrug-resistant ovarian carcinoma cells", "assay": "Antiproliferative activity of cisplatin with and without acetyl L-carnitine, MTT assay", "format": "cell-based", "conditions": "acetyl L-carnitine 10 mM where combined, 6 days of exposure, 0.1% FBS", "protocol": "as §1\nas §2, with “Tumor cells were exposed to compounds for 72 h or 6 days in 0.1% FBS at 37° C., then medium culture was removed and 100 μL/well of medium were added containing 25 μL/well of a solution 5 mg/mL MTT (final 1 mg/mL).” left out"}, "[6]": {"test_system": "NCI-H460 non-small cell lung carcinoma cells", "assay": "Antiproliferative activity of cisplatin with and without acetyl L-carnitine, MTT assay", "format": "cell-based", "conditions": "acetyl L-carnitine 10 mM where combined, 72H of exposure, 0.1% FBS", "protocol": "as §1\nas §2, with “Tumor cells were exposed to compounds for 72 h or 6 days in 0.1% FBS at 37° C., then medium culture was removed and 100 μL/well of medium were added containing 25 μL/well of a solution 5 mg/mL MTT (final 1 mg/mL).” left out"}, "[7]": {"test_system": "A549 non-small cell lung carcinoma", "assay": "Antitumor activity of acetyl L-carnitine in combination with cisplatin, s.c. xenograft", "format": "in vivo", "protocol": "Treatments started six days after cancer injection.\n(§6) When tumors reached a volume of about 1 cm3, mice were sacrificed by cervical dislocation.\n(§7) Body weight recording was carried out through the study."}, "[8]": {"test_system": "IGROV-1 ovarian carcinoma", "format": "in vivo, CD1 nude mice", "conditions": "day +41; cisplatin 4 mg/kg ip, alone or with acetyl L-carnitine 200 mg/kg po", "protocol": "(§8) Treatments started three days after cancer injection.\nWhen tumors reached a volume of about 1-2 cm^3, mice were sacrificed by cervical dislocation.\nas §7"}, "[9]": {"test_system": "NCI-H1650 non-small cell lung carcinoma", "assay": "Antitumor activity of acetyl L-carnitine in combination with cisplatin, s.c. xenograft", "format": "in vivo", "protocol": "Treatments started eleven days after cancer injection.\nas §6, §7"}, "[10]": {"test_system": "SW620 colon carcinoma with mutant p53", "format": "in vivo, CD1 nude mice", "conditions": "day +20; cisplatin 4 mg/kg ip, alone or with acetyl L-carnitine 200 mg/kg po", "protocol": "as §8\nWhen tumors reached a volume of about 1 cm^3, mice were sacrificed by cervical dislocation.\nas §7"}, "[11]": {"test_system": "NCI-H460 non-small cell lung carcinoma", "assay": "Antitumor activity of cisplatin in combination with L-carnitine, s.c. xenograft", "format": "in vivo", "conditions": "cisplatin 4 mg/kg ip, alone or with L-carnitine 200 mg/kg po", "protocol": "as §3, §4, §5"}, "lung metastases": {"test_system": "lung metastases", "conditions": "cisplatin alone, 6 to 8 mg/kg; cited from earlier work"}, "[12]": {"conditions": "cisplatin 4 mg/kg ip, alone or with acetyl L-carnitine 200 mg/kg po"}, "[13]": {"conditions": "day +41, cisplatin 4 mg/kg ip, alone or with acetyl L-carnitine 200 mg/kg po"}},
  "data": [
    {"smiles": "N.N.[Cl][Pt][Cl]", "note": "[Cisplatin]", "values": [
      {"measurement": "IC50", "setting": "[1]; IC50±SD of cisplatin", "value": 4630, "unit": "nM"},
      {"measurement": "CELL SURVIVAL % ± SE", "setting": "[1]; cisplatin 625 nM", "value": 97, "unit": "%"},
      {"measurement": "CELL SURVIVAL % ± SE", "setting": "[1]; cisplatin 1250 nM", "value": 89, "unit": "%"},
      {"measurement": "CELL SURVIVAL % ± SE", "setting": "[1]; cisplatin 2500 nM", "value": 76, "unit": "%"},
      {"measurement": "CELL SURVIVAL % ± SE", "setting": "[1]; cisplatin 5000 nM", "value": 52, "unit": "%"},
      {"measurement": "CELL SURVIVAL % ± SE", "setting": "[1]; cisplatin 10000 nM", "value": 26, "unit": "%"},
      {"measurement": "IC50", "setting": "[2]; IC50±SD of cisplatin", "value": 1500, "unit": "nM"},
      {"measurement": "CELL SURVIVAL % ± SE", "setting": "[2]; cisplatin 78 nM", "value": "98 ± 4.0", "unit": "%"},
      {"measurement": "CELL SURVIVAL % ± SE", "setting": "[2]; cisplatin 312 nM", "value": "92 ± 2.0", "unit": "%"},
      {"measurement": "CELL SURVIVAL % ± SE", "setting": "[2]; cisplatin 625 nM", "value": "81 ± 3.0", "unit": "%"},
      {"measurement": "CELL SURVIVAL % ± SE", "setting": "[2]; cisplatin […]", "value": "95 ± 1.0", "unit": "%"},
      {"measurement": "IC50", "setting": "[3]; IC50±SD of cisplatin", "value": 3200, "unit": "nM"},
      {"measurement": "CELL SURVIVAL % ± SE", "setting": "[3]; cisplatin 312 nM", "value": "100 ± 3.0", "unit": "%"},
      {"measurement": "CELL SURVIVAL % ± SE", "setting": "[3]; cisplatin 625 nM", "value": "90 ± 6.0", "unit": "%"},
      {"measurement": "CELL SURVIVAL % ± SE", "setting": "[3]; cisplatin 1250 nM", "value": "90 ± 2.0", "unit": "%"},
      {"measurement": "CELL SURVIVAL % ± SE", "setting": "[3]; cisplatin 2500 nM", "value": "64 ± 2.0", "unit": "%"},
      {"measurement": "CELL SURVIVAL % ± SE", "setting": "[3]; cisplatin 5000 nM", "value": "35 ± 1.0", "unit": "%"},
      {"measurement": "IC50", "setting": "[4]; IC50±SD of cisplatin", "value": 7800, "unit": "nM"},
      {"measurement": "CELL SURVIVAL % ± SE", "setting": "[4]; cisplatin 1250 nM", "value": "92 ± 2", "unit": "%"},
      {"measurement": "CELL SURVIVAL % ± SE", "setting": "[4]; cisplatin 2500 nM", "value": "74 ± 5", "unit": "%"},
      {"measurement": "CELL SURVIVAL % ± SE", "setting": "[4]; cisplatin 5000 nM", "value": "67 ± 2", "unit": "%"},
      {"measurement": "CELL SURVIVAL % ± SE", "setting": "[4]; cisplatin 10000 nM", "value": "51 ± 3", "unit": "%"},
      {"measurement": "LCK (1 cm^3)", "setting": "NCI-H460 NSCLC; DT = 2.6 days", "value": 0.6},
      {"measurement": "TVI % +31", "setting": "NCI-H460 NSCLC; day +31", "value": 41, "unit": "%"},
      {"measurement": "IC50", "setting": "[5]; IC50±SD of cisplatin", "value": 730, "unit": "nM"},
      {"measurement": "CELL SURVIVAL % ± SE", "setting": "[5]; cisplatin 625 nM", "value": "62 ± 2.0", "unit": "%"},
      {"measurement": "CELL SURVIVAL % ± SE", "setting": "[5]; cisplatin 1250 nM", "value": "40 ± 1.0", "unit": "%"},
      {"measurement": "CELL SURVIVAL % ± SE", "setting": "[5]; cisplatin 2500 nM", "value": "31 ± 1.0", "unit": "%"},
      {"measurement": "CELL SURVIVAL % ± SE", "setting": "[5]; cisplatin […]", "value": "86 ± 2.0", "unit": "%"},
      {"measurement": "IC50", "setting": "[6]; IC50±SD of cisplatin", "value": 400, "unit": "nM"},
      {"measurement": "CELL SURVIVAL % ± SE", "setting": "[6]; cisplatin 39 nM", "value": "96 ± 2.4", "unit": "%"},
      {"measurement": "CELL SURVIVAL % ± SE", "setting": "[6]; cisplatin 78 nM", "value": "93 ± 4.0", "unit": "%"},
      {"measurement": "CELL SURVIVAL % ± SE", "setting": "[6]; cisplatin 312 nM", "value": "61 ± 2.0", "unit": "%"},
      {"measurement": "CELL SURVIVAL % ± SE", "setting": "[6]; cisplatin 625 nM", "value": "39 ± 1.0", "unit": "%"},
      {"measurement": "CELL SURVIVAL % ± SE", "setting": "[6]; cisplatin 1250 nM", "value": "24 ± 0.7", "unit": "%"},
      {"measurement": "CELL SURVIVAL % ± SE", "setting": "[6]; cisplatin […]", "value": "82 ± 2.0", "unit": "%"},
      {"measurement": "BWL % max", "setting": "[7]; cisplatin 4 mg/kg ip q3-4d/wx3w, alone or with acetyl L-carnitine 200 mg/kg po qdx5/wx4w", "value": 8, "unit": "%"},
      {"measurement": "TV ± SE", "setting": "[7]; [12]", "value": "208 ± 55", "unit": "mm^3"},
      {"measurement": "TVI % ± SE", "setting": "[7]; [12]", "value": "49 ± 12", "unit": "%"},
      {"measurement": "TV ± SE +41", "setting": "[8]", "value": "231 ± 55", "unit": "mm^3"},
      {"measurement": "TVI % ± SE +41", "setting": "[8]", "value": "35 ± 8", "unit": "%"},
      {"measurement": "BWL % max", "setting": "[9]; cisplatin 4 mg/kg ip q3-4d/wx3w, alone or with acetyl L-carnitine 200 mg/kg po qdx5/wx5w", "value": 10, "unit": "%"},
      {"measurement": "TV ± SE +41", "setting": "[9]; [13]", "value": "206 ± 32", "unit": "mm^3"},
      {"measurement": "TVI % ± SE +41", "setting": "[9]; [13]", "value": "23 ± 4", "unit": "%"},
      {"measurement": "TV ± SE +20", "setting": "[10]", "value": "244 ± 45", "unit": "mm^3"},
      {"measurement": "TVI % ± SE +20", "setting": "[10]", "value": "55 ± 10", "unit": "%"},
      {"measurement": "TV ± SE +32", "setting": "[11]; day +32", "value": "345 ± 90", "unit": "mm^3"},
      {"measurement": "Leth.", "setting": "[11]; dead/total mice", "value": "0/9"},
      {"measurement": "number of lung metastases", "setting": "lung metastases", "value": "significantly reduced the number of lung metastases"}
    ]}
  ]
}
